# Measurements: patent publication US20250152610A1, “IMIDAZOLATE GOLD COMPOUNDS FOR THE TREATMENT OF LUNG CANCER” (University of Cincinnati, priority 2022, published 2025)
# Assays:
# [1] = test system: KRAS-WT lung cancer cells (H1395, H522, H661, H1993, H332, H820) versus KM lung cancer cells (H157, H1264, H2122, H460, A549); assay: MTT cell viability assay on panel of KRAS-WT and KM lung cancer cell lines; format: cell-based, human; settings: 1 nM to 100 μM; FIGS. 3A-3F; unpaired t test
# Description: Experiments were carried out to determine whether DM20 and CS47 are reversible TrxR inhibitors capable of triggering ferroptosis in KRAS-WT lung cancer cells. DM20 and CS47 in concentrations ranging from 1 nM to 100 μM were tested on a panel of KM and KRAS-WT cell lines in MTT cell viability assays. The tested KM cell lines included H157, H1264, H2122, H460, and A549 cells. The tested KRAS-WT cell lines included H1395, H522, H661, H1993, H332, and H820. Auranofin was included as a positive drug control and the human lung […] fibroblast cell line IMR90 was included as a normal, non-transformed cell counterpart. MTT viability and IC50 values were determined, results for which are shown in FIGS. 3A-3F, wherein each line or symbol corresponds to a human […] cell line. Statistics indicate unpaired t test with *, p<0.05, and **, p<0.01.
# [2] = test system: H522 KRAS-WT lung cancer cells; assay: MTT cell viability rescue with ferrostatin-1, L-cysteine or NAC; format: cell-based, human; settings: 48 hours, DM20 10 μM, CS47 10 uM, auranofin 1 μM; for rescue of cell viability by ferrostatin-1 (Fer-1): FIG. 4A; for rescue of cell viability by cysteine: FIG. 4B; for rescue of cell viability by n-acetyl-cysteine (NAC): FIG. 4C
# Description: H522 KRAS-WT lung cancer cells were treated with DM20 (10 μM), CS47 (10 uM), or auranofin (1 μM) in combination with ferrostatin-1, L-cysteine, or n-acetyl-cysteine (all mM, 48 hours of treatment, in quadruplicate). Statistics indicate one-way ANOVA followed by Sidak's multiple comparisons analysis with ns, p>0.05; *, p<0.05: **, p<0.01; ***, p<0.001 and ****, p<0.0001.
# [3] = test system: H193 and H1395 KRAS-WT lung cancer cells; settings: for lipid peroxidation (oxidized C11-BODIPY) in KRAS-WT cells: 10 μM, 48 hours, FIG. 5B; for ferroptosis induction in KRAS-WT lung cancer cells (overall conclusion): taken together from Examples 1-4
# Description: H157 and A549 KM lung cancer cells and H193 and H1395 KRAS-WT lung cancer cells were treated with vehicle (negative control), DM20 (10 μM), CS47 (10 μM), or auranofin (1 μM positive control) for 48 hours. Cells were then stained with DAP, oxidized C11-BODIPY, and reduced C11-BODIPY. C11-BODIPY is a ferroptosis lipid sensor that switches from red to green fluorescence upon oxidation.
# [4] = test system: GPX4; settings: H522 KRAS-WT and A546 KM cells, 10 μM, 48 hours; FIG. 5A
# Description: H522 KRAS-WT lung cancer cells and A546 KM lung cancer cells were treated with vehicle (negative control), DM20 (10 μM), CS47 (10 μM), and auranofin (1 μM, positive control) for 48 hours. Protein lysates were extracted from the cells and Western blot analysis was carried out to detect expression of TXNRD1 and GPX4 in the cell lines after treatment, with GAPDH expression detected as a control.
Compound,"sensitivity of KRAS-WT lung cancer cells compared with KM lung cancer cells (MTT viability, IC50) [1]",rescue of cell viability by ferrostatin-1 (Fer-1) [2],rescue of cell viability by cysteine [2],rescue of cell viability by n-acetyl-cysteine (NAC) [2],lipid peroxidation (oxidized C11-BODIPY) in KRAS-WT cells [3],ferroptosis induction in KRAS-WT lung cancer cells (overall conclusion) [3],GPX4 expression after treatment (Western blot) [4]
"CC(=O)OC[C@H]1O[C@@H]([S-])[C@H](OC(C)=O)[C@@H](OC(C)=O)[C@@H]1OC(C)=O.CCP(CC)CC.[Au+] [auranofin, reference compound]",significantly and selectively more sensitive,can rescue the cell viability,can rescue the cell viability,can rescue the cell viability,–,–,–
"N#Cc1nc[n]([Au][PH](c2ccccc2)(c2ccccc2)c2ccccc2)c1C#N [DM20, 4,5-dicyano-imidazolate-1yl-gold(I)-triphenylphosphane]",significantly and selectively more sensitive,can rescue the cell viability,can rescue the cell viability,can rescue the cell viability,induces lipid peroxidation,induce ferroptosis,depletes GPX4 expression
"Clc1nc[n]([Au][PH](c2ccccc2)(c2ccccc2)c2ccccc2)c1Cl [CS47, 4,5-dichloro-imidazolate-1yl-gold(I)-triphenylphosphane]",significantly and selectively more sensitive,can rescue the cell viability,can rescue the cell viability,can rescue the cell viability,induces lipid peroxidation,induce ferroptosis,depletes GPX4 expression
